Assay: Particle size measurement of milled suspension (MALVERN MASTERSIZER 3000, in deionized water)
Format: physicochemical
Details: mean; suspension of Example 1 milled 20 minutes with 700 micron polystyrene grinding media (Example 2); measured in deionized water
Procedure: The suspension from Example 1 (6-35 w/v %) was milled in a NETZSCH MINICER bead mill using 700 micron polystyrene grinding media (40-85% media load). The mixture was milled at a speed of 3.1-5.5 m/s at 15-25° C. for 20 minutes.
Following milling, particle size was measured, in deionized water, using a MALVERN MASTERSIZER 3000 particle size analyzer. The mean milled paliperidone palmitate particle size distribution of the suspension was D90 less than 20 micron, D50 less than 10 micron, and a D10 less than 3 micron (FIG. 1).

## CCCCCCCCCCCCCCCC(=O)OC1CCCn2c1nc(C)c(CCN1CCC(c3noc4cc(F)ccc34)CC1)c2=O (stereo not drawn) [paliperidone palmitate, 3-(2-(4-(6-fluoro-3a,7a-dihydrobenzo[d]isoxazol-3-yl)piperidin-1-yl)ethyl)-2-methyl-4-oxo-6,7,8,9-tetrahydro-4H-pyrido[1,2-a]pyrimidin-9-yl palmitate]
  particle size distribution D10: less than 3 micron
  particle size distribution D50: less than 10 micron
  particle size distribution D90: less than 20 micron

From US20190183896A1, “ONE STEP MILLING PROCESS FOR PREPARING MICRONIZED PALIPERIDONE ESTERS” (SpecGX LLC, priority 2017, published 2019)
